This passage reports Ki results from BindingDB's records for doi:10.1021/jm049408n (University of Camerino, 2005).

The assay addresses Adenosine receptor A3 (Bos taurus). As to the kind of experiment: Displacement of [125I]AB-MECA from adenosine A3 receptors in bovine cortical membranes.

Broadly, the Ki is the equilibrium dissociation constant of an inhibitor or competing ligand from its target. The low end stands for higher affinity, the high end for lower affinity. Take `CNC(=O)[C@H]1O[C@@H](n2cnc3c(NCc4cccc(I)c4)ncnc32)[C@](C)(O)[C@@H]1O` [3,4-Dihydroxy-5-[6-(3-iodo-benzylamino)-purin-9-yl]-4-methyl-tetrahydro-furan-2-carboxylic acid methylamide]: affinity was put at a Ki of 0.24 µM.
